# Columns and labels:
# U87MG glioblastoma CDX = assay: Subcutaneous U87MG glioblastoma CDX: tumor weight and time of tumor progression; type: in vivo, cd1 nu/nu mice (human GBM cell line); conditions: for tumor weight [%]: relative to vehicle = 100
# Method: Effects of KcAng(1-7) were evaluated in vivo in a subcutaneous GBM xenograft model in nude mice. Insurgence of neurologic phenomena and differences in the survival rates were evaluated. Human GBM cell lines U87MG and U251MG were used. Cell lines were grown in DMEM nutrient mixture supplemented with 10% fetal bovine serum, 1% penicillin/streptomycin, and 25 mM HEPES buffer. All cell lines were cultured at 37° C. in a humidified atmosphere consisting of 5% CO2 and 95% air. Medium was changed every 2 days and the cell morphology was evaluated under microscope daily.
# Six-week-old male athymic nude mice (age 5-7 weeks) were housed with free access to food and water in a temperature-controlled room. Each group is represented by 10 xenograft cd1 nu/nu mice. The mice were injected s.c. in the right distal hind limb with one million of cultured human tumor cell lines suspended in 0.15 mL of 2:1 solution of PBS/Matrigel (Matrigel BD Biosciences). Xenografts were measured every four days with a digital caliper in two perpendicular dimensions. Tumor volume was calculated according to the following formula:
# Tumor volume=(tumor width)×(tumor width)×(tumor length)÷2
# At the end of experiments, mice were euthanized and tumors removed. Weight loss or other signs of distress such as hunched posture were checked during and after treatments.
# Efficacy of treatment was evaluated by: (1) the size of tumors (vehicle control and treated), (2) the relative weight at the end of experiment, and (3) the indirect evaluation of angiogenesis by determining hemoglobin levels.
# In vivo tumor response to treatment was evaluated using the following parameters: (i) Complete response (CR): defined as the disappearance of a measurable lesion, (ii) Partial response (PR): defined as a reduction of greater than 50% of the sum of the products of the cross-sectional diameters of the measurable lesion, (iii) Stable disease (SD): defined as a reduction of less than 50% or an increase of less than 25% in the sum of the products of the cross-sectional diameters of the measurable lesions, (iv) Tumor progression (TP): defined as an increase of greater than […] in the sum of the products of the cross-sectional diameters of the measured lesion, (v) Time to progression (TTP) defining the tumor growth delay. Tumor progression was calculated through the analysis of bioluminescence imaging (BLI) photon counts and when possible through the analyses of tumor volumes calculated by magnetic resonance imaging (MRI), (vi) Disease free survival (DFS) is the time elapsed between the time point at which no luciferase activity is detectable anymore and the death of the animal, (vii) Overall survival (OS) is the time elapsed between tumor inoculation and death of the animal. […] Luciferase transfected cells were used for bioluminescence evaluations.
# Data are presented as mean and standard error of the mean (SEM) or standard deviation (SD). Statistical comparisons between control and treated groups were established by carrying out the Kruskal-Wallis test (a nonparametric one-way analysis of variance) or the Mann-Whitney test (in the case of two groups). The level of significance was corrected by multiplying the P value by the number of comparisons performed (n) according to […] correction. TP, TTP and DFS were analyzed by Kaplan-Meier curves and Gehan's generalized Wilcoxon test. All statistical analyses were undertaken using SPSS 10.0.
# Mice with U87MG cell CDX were randomized at day 0. KcAng(1-7) was injected daily subcutaneously (0.2 μg/kg) starting at day 0 until the (ethical) endpoint maximally at day 42. TMZ was administered at 16 mg/kg during 5 consecutive days, that is from […]. Volumetric evaluation of the tumor was performed every 4 days and tumor weight was measured at the end of the experiment.
# Synergism was determined using the methods described in Clarke et al. Breast Cancer Research and Treatment 46:255-278 (1997).
# Mice with U87MG cell CDX were randomized at day 0. […]
# U251MG glioblastoma CDX = assay: Subcutaneous U251MG glioblastoma CDX: time of tumor progression; type: in vivo, cd1 nu/nu mice (human GBM cell line); conditions: KcAng(1-7) 1 μg/kg/d, Losartan 20 mg/kg/d, or both
# Method: Effects of KcAng(1-7) were evaluated in vivo in a subcutaneous GBM xenograft model in nude mice. Insurgence of neurologic phenomena and differences in the survival rates were evaluated. Human GBM cell lines U87MG and U251MG were used. Cell lines were grown in DMEM nutrient mixture supplemented with 10% fetal bovine serum, 1% penicillin/streptomycin, and 25 mM HEPES buffer. All cell lines were cultured at 37° C. in a humidified atmosphere consisting of 5% CO2 and 95% air. Medium was changed every 2 days and the cell morphology was evaluated under microscope daily. Six-week-old male athymic nude mice (age 5-7 weeks) were housed with free access to food and water in a temperature-controlled room. Each group is represented by 10 xenograft cd1 nu/nu mice. […] Xenografts were measured every four days with a digital caliper in two perpendicular dimensions. Tumor volume was calculated according to the following formula: In vivo tumor response to treatment was evaluated using the following parameters: […] […] TP, TTP and DFS were analyzed by Kaplan-Meier curves and Gehan's generalized Wilcoxon test. […]
substance,measurement,setting,value
Lys-Asp-Arg-Val-Abu/Ala-Ile-His-Abu/Ala (KDRVAIHA; not fully specified; cyclic thioether (Abu/Ala bridge); VARIANT (5)..(5) /replace=“Abu”; VARIANT (8)..(8) /replace=“Abu”; SITE (1)..(8) /note=“Variant residues given in the sequence have no preference with respect to those in the annotations for variant positions”) [KcAng(1-7)],"Time of tumor progression - TTP, mean (days ± SD)","U87MG glioblastoma CDX; KcAng(1-7) 0.2 μg/kg/d s.c., TMZ 16 mg/kg for 5 days, or both",12.80 ± 0.54 days
same,increase of the time of tumor progression,U87MG glioblastoma CDX; KcAng(1-7) 0.2 μg/kg/d vs vehicle,approximately 2 days
same,"Time of tumor progression - TTP, mean (days ± SEM)","U87MG glioblastoma CDX; KcAng(1-7) 1 μg/kg/d s.c., Losartan 20 mg/kg/d i.p., or both",15.2 ± 0.9 days
same,"Tumor weight, mean (mg ± SEM)","U87MG glioblastoma CDX; KcAng(1-7) 1 μg/kg/d s.c., Losartan 20 mg/kg/day i.p., or both",580 ± 27 mg
same,"Tumor weight, mean (mg ± SD)","U87MG glioblastoma CDX; end of experiment, KcAng(1-7) 0.2 μg/kg/d s.c., TMZ 16 mg/kg for 5 days, or both",830 ± 57 mg
same,tumor weight [%],"U87MG glioblastoma CDX; KcAng(1-7) 0.2 μg/kg/d, TMZ 16 mg/kg, or both",79.8%
same,tumor weight [%],"U87MG glioblastoma CDX; KcAng(1-7) 1 μg/kg/d, Losartan 20 mg/kg/d, or both",55.8%
same,"Time of tumor progression - TTP, mean (days ± SEM)",U251MG glioblastoma CDX,14.4 ± 0.8 days

# Reference: patent US20220257698A1, “ANGIOTENSIN TYPE 2 (AT2) RECEPTOR AGONISTS FOR USE IN THE TREATMENT OF CANCER” (LANTHIOPEP B.V., priority 2019, published 2022)
